Reference: US20260243686A1, “REAL TIME DETECTION AND QU[…] PLANT INNATE IMMUNITY RESPONSE USING RAMAN SPECTROSCOPY” (TEMASEK LIFE SCIENCES […], priority 2021, published 2026)
Ends that are not written are not given here.

Columns and labels:
[1] = tested on: PTI-specific marker genes in Arabidopsis leaves; assay: Gene expression analysis of PTI marker genes by qRT-PCR; assay type: in vivo, Arabidopsis thaliana; conditions: infiltrated leaves, 1.0 μM elicitor
Protocol: RNA extraction and gene expression analysis by qRT-PCR: Total RNA was extracted from the entire infiltrated leaf using RNeasy plant mini kit (74104; Qiagen) with DNase I (79254; Qiagen) treatment. cDNA synthesis and RT-PCR were performed as described (Park et al., 2019). Expression of the Arabidopsis Act2 (At3g18780) was used as an internal control. Primer pairs for quantitative RT-PCR were designed using Primer-BLAST (https://www.ncbi.nlm.nih.gov/tools/primer-blast/index.cgi) or manually by eye.
flg22 and elf18 were used to induce plant innate immunity responses without related pathogenic symptoms (Bektas & Eulgem, 2015). To reduce variability between biological samples, Arabidopsis wild-type (Col-0) and mutant plants were grown under short-day conditions for about 5-6 weeks with about 17-18 leaves (Farmer et al., 2013; Kurenda et al., 2019) (FIG. 1A). The abaxial side of leaf 7th or 8th was infiltrated with a needleless syringe containing (50 μl) water, 1.0 μM flg22 or 1.0 μM elf18 (FIG. 1B). […] However, compared to mock infiltration, infiltration of either elicitor induced expression of PTI-specific marker genes of the PTI pathway but with different kinetics (FIGS. 3A-3C). […] Expression of most activated genes returned to basal levels by 24 hours (FIGS. 3A-3C) although several genes (PR1, WRYK29, and WRKY53) still maintained high expression levels at this time point.

[2] = tested on: PTI response in Arabidopsis thaliana (Col-0) leaves; assay: Raman spectroscopy of elicitor-infiltrated leaves, Elicitor Response Factor (ERF); assay type: in vivo; conditions: WT, 1 μM elicitor, distal region (DR)
[3] = tested on: PTI response in Arabidopsis thaliana (Col-0) leaves; assay: as above; assay type: in vivo; conditions: for ERF (Elicitor Response Factor) value: WT Col-0, 1 μM elicitor, proximal region, 10 hpi; for ERF value: proximal region (PR), 48 and 72 hpi
Protocol: Plant growth and elicitor/pathogen infiltration: Arabidopsis thaliana (Col-0) wild-type (WT) and mutants including fls2 (salk_062054), efr-2 (salk_068675), bak1 (salk_116202), bik1 (salk_005291), rbohd (salk_083046), pub12/13 (Zhou et al., 2018) and pub25/26 (Wang et al., 2018) were used. Ten-day old seedlings grown on soil were transferred to a growth room at 70% humidity and 21° C. with a 10-h-light/14-h-dark photoperiod (short-day condition). Light intensity was 100 μmol/m^2s^−1. Five to 6 week-old plants with about 17-18 leaves were used. Flg22 contains the 22-amino acid sequence […] (SEQ ID NO:1) corresponding to a conserved motif of the amino terminus of flagellin from Pseudomonas species. Elf18 contains the sequence Ac[…] (SEQ ID NO:2) corresponding to the conserved N-terminal 18-amino acid peptide of the bacterial protein elongation factor Tu (EF-Tu). These peptides (Axil Scientific Pte Ltd) were dissolved in sterile H2O to a concentration of 5 mM and aliquots of 100 μM stock solution were stored at −20° C. 3-hydroxydecanoic acid (Sigma, H3648) (Kutschera et al., 2019) was dissolved in ethanol to a concentration of 5 mM, and Chitin, GlcNacβ1-4[GlcNacβ1-4GlcNAc]5GlcNAc (ELICITYL, GLU437) was dissolved in water to a concentration of 5 mM. Aliquots of 100 μM stock solutions were stored at −20° C.
Custom-built Raman spectroscopy system and spectral data analysis: The Raman spectroscopy system with an 830 nm excitation wavelength was previously described (Huang et al., 2020). The Raman shift axis was calibrated using a polystyrene sample (Creely et al., 2005) and Raman spectra were recorded in the range of 400 cm^−1-1700 cm^−1. The 830 nm excitation wavelength has the advantage of deeper penetration depth and generating comparatively lower fluorescence background signal from the leaf tissue, resulting in spectra with a higher signal to noise ratio (SNR). The pre-processing of the Raman spectra consisted of cosmic ray removal and smoothing with the Savitzky-Golay filter function (MATLAB Inc., USA) with 5th order polynomial and frame length of 11. The Raman spectra presented here were obtained after removing any residual fluorescence background using a polynomial subtraction method with non-negative constraints (Lieber & Mahadevan-Jansen, 2003).
For Arabidopsis, two plants from each independent biological sample were investigated (Huang et al., 2020). The 7th or 8th leaf of 5-6 week-old plants were used for infiltrations (FIGS. 1A-1E) At the designated time after infiltrations, leaf discs (6 mm diameter) were excised with a puncher from regions proximal to the infiltrated sites (FIG. 2A). Two leaf discs were obtained from each elicitor-treated leaf, one from the left and the other from the right side of the central leaf vein. A total of 4 leaf discs were analyzed for each genotype per experiment. The leaf discs were placed with a drop of water between a fused silica slide of thickness 0.5 mm and a fused silica coverslip, which was 100 μm thick. Three locations were measured in each leaf disc, with 5 Raman spectra acquired per location and an exposure time of 10 s per spectrum. Thus, an average Raman spectrum of an independent biological sample was obtained from the mean of total 60 Raman spectra. The experiments were repeated with 3-4 independent biological samples.
A custom-built near infrared excitation Raman instrument (FIG. 1E) to measure Raman spectra from mock- or elicitor-infiltrated leaf samples (FIGS. 2B-2C). […]

[4] = fls2 mutant, 24 hpi, 1 μM elicitor

AcSKEKFERTKPHVNVGTIG (SEQ ID NO:2) (Ac-SKEKFERTKPHVNVGTIG; listed as Pseudomonas sp.) [elf18, conserved N-terminal 18-amino acid peptide of the bacterial protein elongation factor Tu (EF-Tu)]
innate immunity response (gene expression and callose deposition data together) [1]: induced rapid and robust innate immunity response
ERF value [2]: Lower ERF value
ERF (Elicitor Response Factor) value [3]: 0.63×10^4
ERF value ([3]; WT, 1 μM elicitor): decreased to almost zero
Raman peak at 1065 cm^−1 ([3]; WT, 24 hpi): specifically resulted in changes
Raman/ERF response [3, 4]: remained responsive

QRLSTGSRINSAKDDAAGLQIA (SEQ ID NO:1) (listed as Pseudomonas sp.) [flg22]
innate immunity response (gene expression and callose deposition data together) [1]: induced rapid and robust innate immunity response
ERF value [2]: Low ERF values
ERF (Elicitor Response Factor) value [3]: 1.12×10^4
increase of ERF value from 10 hpi to 24 hpi ([3]; WT, 1 μM elicitor): about 8 times
ERF value ([3]; WT, 1 μM elicitor): decreased to almost zero
Raman peak intensity at 789.7 cm^−1 ([3]; WT, 24 hpi): statistically significant change
Raman/ERF response ([3]; efr-2 mutant, 24 hpi, 1 μM elicitor): responded
Raman/ERF response [3, 4]: refractory
